Among the data in PubChem BioAssay (NCI) are TGI values, retold here.

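Dose response: 5 concentrations. Exposure: 48 h. Format: 96-well plates. Endpoint: linear interpolation; highest concentration if not reached. TGI marks complete inhibition of growth.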 Where a SMILES comes first, the peptide text is derived from it. [ ]: non-standard residue; d: D form. The star is where a group is joined. NMeAc5c = CNC1(C(=O)O)CCCC1; Boc = CC(C)(C)OC(=O)*; OBn = c1ccc(CO*)cc1

A word on the TGI: it is the concentration giving total growth inhibition. High values mean lower sensitivity of the cells, low ones greater sensitivity of the cells.

The first test relates to HOP-62 NSCLC. The experiment in a line: DTP human tumour cell line panel, 48 h.
`CC(C)(C)OC(=O)NCCCCC1NC(=O)[C@@H]2Cc3c([nH]c4ccccc34)C(C3CCCCC3)N2C1=O` (stereo not given in full): the TGI was above 100 µM.

As to `CN(C(=O)C(Cc1ccccc1)NC(=O)OC(C)(C)C)C1(C(=O)NC(Cc2ccccc2)C(=O)OCc2ccccc2)CCCC1` (stereo not drawn) (Boc-Phe-[NMeAc5c]-Phe-OBn; configuration not given here), the TGI is above 100 µM.

For the compound `COc1cc(C2c3cc4c(cc3OC(N3CCOCC3)C2C)OCO4)ccc1O` (stereo not given), the TGI is above 63.8 µM.

In turn, `COc1ccc(COCCOCc2nc(C#N)c(N)o2)cc1` showed a TGI above 100 µM.

`CC1(C)OC(=O)N(c2ccccc2)C12C=Cc1cc([N+](=O)[O-])cc([N+](=O)[O-])c1O2` (stereo not given) gave a TGI above 100 µM.

In another test the test system is HOP-92 NSCLC. Briefly: DTP human tumour cell line panel, 48 h.
`Cc1ccccc1C(=O)N1CCc2c([nH]c3ccccc23)C1` showed a TGI of 44.4 µM.

For `Cc1nc2n(c1/C=C1/C(=O)Nc3cccc(Cl)c31)CCS2`, the TGI was 66.8 µM.

Regarding `NC(=O)NCCCC(NC(=O)OCCCCn1ccc(=O)[nH]c1=O)C(=O)O` (stereo not given), the TGI is above 100 µM.

The compound `CCOC(=O)C(SCCO)C(C(=O)OCC)n1cnc2c(=O)[nH]c(NC(C)=O)nc21` (stereo not given) came in with a TGI above 100 µM.

The compound `CC(C)(C)N1CSC(=S)N(Cc2ccco2)C1` registered a TGI of 12.1 µM.

The compound `CC(C)(C)OC(=O)NCCCCC1NC(=O)[C@@H]2Cc3c([nH]c4ccccc34)C(C3CCCCC3)N2C1=O` (stereo not given in full) yielded a TGI above 100 µM.

As to `CN(C(=O)C(Cc1ccccc1)NC(=O)OC(C)(C)C)C1(C(=O)NC(Cc2ccccc2)C(=O)OCc2ccccc2)CCCC1` (stereo not drawn) (Boc-Phe-[NMeAc5c]-Phe-OBn; configuration not given here), the TGI was above 100 µM.

Turning to `COc1cc(C2c3cc4c(cc3OC(N3CCOCC3)C2C)OCO4)ccc1O` (stereo not given), the TGI was above 100 µM.

Compound `COc1ccc(COCCOCc2nc(C#N)c(N)o2)cc1` had a concentration for total growth inhibition (TGI) above 100 µM.

In turn, `CC1(C)OC(=O)N(c2ccccc2)C12C=Cc1cc([N+](=O)[O-])cc([N+](=O)[O-])c1O2` (stereo not given) displayed a TGI above 100 µM.

The next test relates to NCI-H23 lung. Briefly: DTP human tumour cell line panel, 48 h.
Turning to `Cc1ccccc1C(=O)N1CCc2c([nH]c3ccccc23)C1`, the TGI came out at 50.9 µM.

For `Cc1nc2n(c1/C=C1/C(=O)Nc3cccc(Cl)c31)CCS2`, the TGI is above 100 µM.

The compound `NC(=O)NCCCC(NC(=O)OCCCCn1ccc(=O)[nH]c1=O)C(=O)O` (stereo not given) displayed a concentration for total growth inhibition (TGI) above 100 µM.

`CCOC(=O)C(SCCO)C(C(=O)OCC)n1cnc2c(=O)[nH]c(NC(C)=O)nc21` (stereo not given) gave a TGI above 100 µM.

`CC(C)(C)N1CSC(=S)N(Cc2ccco2)C1` had a TGI of 11.1 µM.

`CC(C)(C)OC(=O)NCCCCC1NC(=O)[C@@H]2Cc3c([nH]c4ccccc34)C(C3CCCCC3)N2C1=O` (stereo not given in full) displayed a TGI above 100 µM.

`CN(C(=O)C(Cc1ccccc1)NC(=O)OC(C)(C)C)C1(C(=O)NC(Cc2ccccc2)C(=O)OCc2ccccc2)CCCC1` (stereo not drawn) (Boc-Phe-[NMeAc5c]-Phe-OBn; configuration not given here) had a TGI above 100 µM.

With `COc1cc(C2c3cc4c(cc3OC(N3CCOCC3)C2C)OCO4)ccc1O` (stereo not given), the TGI was above 95.7 µM.

For `COc1ccc(COCCOCc2nc(C#N)c(N)o2)cc1`, the TGI is above 100 µM.

Consider `CC1(C)OC(=O)N(c2ccccc2)C12C=Cc1cc([N+](=O)[O-])cc([N+](=O)[O-])c1O2` (stereo not given), for which the TGI was above 100 µM.

The next test deals with NCI/ADR-RES ovarian. Briefly: DTP human tumour cell line panel, 48 h.
The compound `Cc1ccccc1C(=O)N1CCc2c([nH]c3ccccc23)C1` registered a TGI of 62.7 µM.

`Cc1nc2n(c1/C=C1/C(=O)Nc3cccc(Cl)c31)CCS2` displayed a TGI above 100 µM.

`NC(=O)NCCCC(NC(=O)OCCCCn1ccc(=O)[nH]c1=O)C(=O)O` (stereo not given) came in with a TGI above 100 µM.

As to `CCOC(=O)C(SCCO)C(C(=O)OCC)n1cnc2c(=O)[nH]c(NC(C)=O)nc21` (stereo not given), the TGI is above 100 µM.

`CC(C)(C)N1CSC(=S)N(Cc2ccco2)C1` displayed a TGI of 18.4 µM.

`CC(C)(C)OC(=O)NCCCCC1NC(=O)[C@@H]2Cc3c([nH]c4ccccc34)C(C3CCCCC3)N2C1=O` (stereo not given in full) had a TGI above 100 µM.

In the case of `CN(C(=O)C(Cc1ccccc1)NC(=O)OC(C)(C)C)C1(C(=O)NC(Cc2ccccc2)C(=O)OCc2ccccc2)CCCC1` (stereo not drawn) (Boc-Phe-[NMeAc5c]-Phe-OBn; configuration not given here), the TGI is above 100 µM.

For the compound `COc1cc(C2c3cc4c(cc3OC(N3CCOCC3)C2C)OCO4)ccc1O` (stereo not given), the TGI worked out at 52.2 µM.

On to `COc1ccc(COCCOCc2nc(C#N)c(N)o2)cc1`, for which the concentration for total growth inhibition (TGI) was above 100 µM.

Take `CC1(C)OC(=O)N(c2ccccc2)C12C=Cc1cc([N+](=O)[O-])cc([N+](=O)[O-])c1O2` (stereo not given): the TGI was above 100 µM.

A further test has as its system PC-3 prostate. The experiment in a line: DTP human tumour cell line panel, 48 h.
The compound `Cc1ccccc1C(=O)N1CCc2c([nH]c3ccccc23)C1` showed a TGI of 33.9 µM.

`Cc1nc2n(c1/C=C1/C(=O)Nc3cccc(Cl)c31)CCS2` yielded a TGI above 100 µM.

Consider `NC(=O)NCCCC(NC(=O)OCCCCn1ccc(=O)[nH]c1=O)C(=O)O` (stereo not given), for which the TGI is above 100 µM.

With `CCOC(=O)C(SCCO)C(C(=O)OCC)n1cnc2c(=O)[nH]c(NC(C)=O)nc21` (stereo not given), the TGI was above 100 µM.

For the compound `CC(C)(C)N1CSC(=S)N(Cc2ccco2)C1`, the TGI stood at 13.7 µM.

Regarding `CC(C)(C)OC(=O)NCCCCC1NC(=O)[C@@H]2Cc3c([nH]c4ccccc34)C(C3CCCCC3)N2C1=O` (stereo not given in full), the TGI was above 100 µM.

Compound `CN(C(=O)C(Cc1ccccc1)NC(=O)OC(C)(C)C)C1(C(=O)NC(Cc2ccccc2)C(=O)OCc2ccccc2)CCCC1` (stereo not drawn) (Boc-Phe-[NMeAc5c]-Phe-OBn; configuration not given here) came in with a TGI above 100 µM.

As for `COc1cc(C2c3cc4c(cc3OC(N3CCOCC3)C2C)OCO4)ccc1O` (stereo not given), the TGI was above 100 µM.

`COc1ccc(COCCOCc2nc(C#N)c(N)o2)cc1` gave a TGI above 100 µM.

In turn, `CC1(C)OC(=O)N(c2ccccc2)C12C=Cc1cc([N+](=O)[O-])cc([N+](=O)[O-])c1O2` (stereo not given) showed a TGI above 100 µM.

The subject of a further test is SF-268 CNS. The experiment in a line: DTP human tumour cell line panel, 48 h.
`Cc1ccccc1C(=O)N1CCc2c([nH]c3ccccc23)C1` registered a TGI above 100 µM.

As to `Cc1nc2n(c1/C=C1/C(=O)Nc3cccc(Cl)c31)CCS2`, the TGI was 52.1 µM.

`NC(=O)NCCCC(NC(=O)OCCCCn1ccc(=O)[nH]c1=O)C(=O)O` (stereo not given) yielded a TGI above 100 µM.

In turn, `CCOC(=O)C(SCCO)C(C(=O)OCC)n1cnc2c(=O)[nH]c(NC(C)=O)nc21` (stereo not given) registered a TGI above 100 µM.

`CC(C)(C)N1CSC(=S)N(Cc2ccco2)C1` gave a TGI of 15.1 µM.

In the case of `CC(C)(C)OC(=O)NCCCCC1NC(=O)[C@@H]2Cc3c([nH]c4ccccc34)C(C3CCCCC3)N2C1=O` (stereo not given in full), the TGI is above 100 µM.

`CN(C(=O)C(Cc1ccccc1)NC(=O)OC(C)(C)C)C1(C(=O)NC(Cc2ccccc2)C(=O)OCc2ccccc2)CCCC1` (stereo not drawn) (Boc-Phe-[NMeAc5c]-Phe-OBn; configuration not given here) returned a TGI above 100 µM.

Compound `COc1cc(C2c3cc4c(cc3OC(N3CCOCC3)C2C)OCO4)ccc1O` (stereo not given) showed a TGI above 100 µM.

For `COc1ccc(COCCOCc2nc(C#N)c(N)o2)cc1`, the TGI is above 100 µM.

With `CC1(C)OC(=O)N(c2ccccc2)C12C=Cc1cc([N+](=O)[O-])cc([N+](=O)[O-])c1O2` (stereo not given), the TGI is above 100 µM.

A further test concerns T-47D breast. Briefly: DTP human tumour cell line panel, 48 h.
As to `Cc1ccccc1C(=O)N1CCc2c([nH]c3ccccc23)C1`, the TGI was 71.8 µM.

The compound `Cc1nc2n(c1/C=C1/C(=O)Nc3cccc(Cl)c31)CCS2` returned a TGI of 54.9 µM.

As for `NC(=O)NCCCC(NC(=O)OCCCCn1ccc(=O)[nH]c1=O)C(=O)O` (stereo not given), the TGI is above 100 µM.

The compound `CCOC(=O)C(SCCO)C(C(=O)OCC)n1cnc2c(=O)[nH]c(NC(C)=O)nc21` (stereo not given) came in with a TGI above 100 µM.

In turn, `CC(C)(C)N1CSC(=S)N(Cc2ccco2)C1` gave a TGI of 46.4 µM.

The compound `CC(C)(C)OC(=O)NCCCCC1NC(=O)[C@@H]2Cc3c([nH]c4ccccc34)C(C3CCCCC3)N2C1=O` (stereo not given in full) had a TGI above 100 µM.

The compound `CN(C(=O)C(Cc1ccccc1)NC(=O)OC(C)(C)C)C1(C(=O)NC(Cc2ccccc2)C(=O)OCc2ccccc2)CCCC1` (stereo not drawn) (Boc-Phe-[NMeAc5c]-Phe-OBn; configuration not given here) returned a TGI above 100 µM.

Compound `COc1cc(C2c3cc4c(cc3OC(N3CCOCC3)C2C)OCO4)ccc1O` (stereo not given) had a TGI above 78.2 µM.

The compound `COc1ccc(COCCOCc2nc(C#N)c(N)o2)cc1` registered a TGI above 100 µM.

As to `CC1(C)OC(=O)N(c2ccccc2)C12C=Cc1cc([N+](=O)[O-])cc([N+](=O)[O-])c1O2` (stereo not given), the TGI is above 100 µM.
